Where “and” joins values, the source holds several entries; their conditions need not be identical. Identical values can stand only once.
What was measured:
Assay type in all cases: in vivo
[1] = tested on: Fall Armyworm (Spodoptera frugiperda, LAPHFR, FAW); assay: Bioassay 4: fall armyworm, artificial diet, 128-cell tray; conditions: AI alone
Procedure, shortened: (§1)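 Test solutions (0.0000004–0.04% w/v, i.e. 0.00005–5 μg/cm² on diet) were pipetted onto artificial lepidopteran diet and one 2nd-instar larva was placed per cell, 8 replicates per species, held at ~26° C. Live larvae were counted after 5 days; percent control used Abbott's correction against a solvent check.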

[2] = tested on: Soybean Looper (Chrysodeixis includens, PSEPIN, SBL); assay: Bioassay 4: soybean looper, artificial diet, 128-cell tray; conditions: AI alone
Procedure, shortened: as §1

[3] = tested on: Corn Earworm (Helicoverpa zea, HELIZE, CEW); assay: Bioassay 4: corn earworm, artificial diet, 128-cell tray; conditions: AI alone
Procedure, shortened: as §1

[4] = tested on: Sweet Potato Whitefly (Bemisia tabaci, BEMITA, SPW); assay: Bioassay 2: sweet potato whitefly, cotton seedling foliar spray; conditions: AI alone
Method: Stock solutions were prepared with F1 as well as for each of the active ingredients individually. Test solutions were prepared from the stock solutions. Test solutions were prepared containing F1, the individual active ingredients, and mixtures of F1 with each of the active ingredients. The test solutions for F1 and the individual active ingredients were prepared by adding 500 μL of stock solution to a 25 mL glass vial, then adding 500 μL of acetone, followed by the addition of 9 mL water with 0.025% Tween® 20 to create a 0.001% (w/v) solution. The test solutions containing mixtures of F1, and the individual active ingredients were prepared by adding 500 μL of the active ingredient stock solution to a 25 mL glass vial, followed by 500 μL of the F1 stock solution, then by the addition of 9 mL water with 0.025% Tween® 20 to create a test solution containing 0.001% (w/v) F1 and 0.001% (w/v) of the active ingredient. Each test solution was serially diluted to create desired doses of test solutions (0.001% (w/v), 0.0001% (w/v), 0.00001% (w/v), 0.000001% (w/v), 0.0000001% (w/v), and 0.00000001% (w/v)).
The test solutions were tested against SPW using the following procedure: Cotton seedlings grown in 3-inch pots, pruned so that only one true leaf remained, were used as test substrate. Adult B. tabaci were allowed to colonize the cotton plants and lay eggs for 24 hours after which all adults were removed from the plants using compressed air. Plants were monitored for egg development, and when crawler emergence was underway (>25% emergence based on visual examination using a microscope), the plants were sprayed using the test solutions and methods described above for green peach aphids (GPA). Treated plants were held in a holding room at approximately 25° C. and ambient relative humidity (RH) prior to grading. Evaluation was conducted by counting the number of developed 2-3 instar nymphs per plant under a microscope 7-9 days after treatment. Percent control was measured using Abbott's correction formula (W. S. Abbott, J. Econ. Entomol. 18 (1925), pp. 265-267) as follows:
where X=No. of live nymphs on solvent check plants and Y=No. of live nymphs on treated plants. In Table B2 the “Expected % Control” was calculated using the method described in Colby S. R., Weeds, 1967, 15, 20-22. Bioassay 3: Western Flower Thrips (Frankliniella occidentalis, FRANOC, “WFT”).

[5] = tested on: Brown Planthopper (Nilaparvata lugens, NILALU, BPH); assay: Bioassay 6: brown planthopper, sprayed rice seedlings; conditions: AI alone, AI Rate 0.049 g/ha, 6 days
Method: At these rates, F1 and the individual active ingredients were tested at a ratio of 1:1. […] F1 and triflumezopyrim were tested at a ratio of 16:1. Test solutions were prepared containing F1, the individual active ingredients, and mixtures of F1 with each of the active ingredients. Test solutions were prepared by weighing 5 mg of each test chemistry (either alone or in combination depending on the treatment) into a 25 mL glass vial. Next, 1 mL of acetone was added to each vial to dissolve the test chemistries, followed by 19 mL of water with 0.125% Tween 20 adjuvant. This test solution represented the 50 g/ha treatment, which was then serially diluted four-fold to create the three lower rates of 12.5, 3.125, and 0.78 g/ha. Triflumezopyrim was prepared in a similar manner, but two additional serial dilutions were conducted to create solutions representing 6 rates of 12.5, 3.125, 0.78, 0.19, 0.049, and 0.012 g/ha. The higher two doses were discarded, and the four lower doses were used for testing. Each rate was replicated four times, and solvent blanks were used as control treatments.
Five (5) rice seedlings (10-12 days old) planted in 3-inch pots were used as test plants. Rice seedlings were grown in soil and the soil was covered with a 2% agar solution. The test solutions were applied to test plants using a Devries laboratory research sprayer, set to spray at 200 liters per hectare (L/ha) using a TeeJet hollow cone nozzle. Following application, the rice seedlings were dried for 1 hour, after which a single clear plastic tube (2 inches in diameter×12 inches in height) was placed over the seedlings in each pot. The tube was pushed down into the agar to create a sealed test chamber. The agar prevented insects from hiding in the soil and made adult collection and grading easier. Ten to fifteen (10-15) 5th instar BPH nymphs were transferred to each test chamber using a vacuum aspirator. Immediately following BPH infestation, the test chamber was covered with a piece of grade 90 cheesecloth and secured with a rubber band, sealing the test chamber. The test chambers were held at 25° C. for 6 days, after which the total number of live insects was counted in each test chamber. Percent control was measured using Abbott's correction formula (W. S. Abbott, J. Econ. Entomol. 18 (1925), pp. 265-267) as follows:
where X=No. of live insects on solvent check and Y=No. of live insects in treated chambers. In Table B6 the “Expected % Control” was calculated using the method described in Colby S. R., Weeds, 1967, 15, 20-22. Bioassay 7: Corn Earworm (Helicoverpa zea, HELIZE, “CEW”), Fall Armyworm (Spodoptera frugiperda, LAPHFR, “FAW”), Beet Armyworm (Spodoptera exigua, LAPHEG, “BAW”),and Soybean Looper (Chrysodeixis includens, PSEPIN, “SBL”).

For `N#CCNC(=O)c1cnccc1C(F)(F)F` [Flonicamid], the “Average % Control AI” value ([1]; 0.000004 wt %) was 0.0%, the “Average % Control AI” value ([1]; 0.00004 wt %) was 0.0% and the “Average % Control AI” value ([2]; 0.000004 wt %) was 0.0%. The “Average % Control AI” value ([2]; 0.00004 wt %) was 0.0%, the “Average % Control AI” value ([3]; 0.000004 wt %) was 0.0% and the “Average % Control AI” value ([3]; 0.00004 wt %) was 0.0%. For the same molecule, the “Average % Control AI” value ([4]; Wt % AI 0.0001, 7-9 days) was 0.0% and the “Average % Control AI” value [5] was 5.4% and 1.1%.

With `O=C1C=C(N(Cc2ccc(Cl)nc2)CC(F)F)CO1` [Flupyradifurone] the “Average % Control AI” value ([1]; 0.000004 wt %) was 0.0%, the “Average % Control AI” value ([1]; 0.00004 wt %) was 0.0% and the “Average % Control AI” value ([2]; 0.000004 wt %) was 0.0%. The “Average % Control AI” value ([2]; 0.00004 wt %) was 0.0%, the “Average % Control AI” value ([3]; 0.000004 wt %) was 0.0% and the “Average % Control AI” value ([3]; 0.00004 wt %) was 0.0%. For the same molecule, the “Average % Control AI” value ([4]; Wt % AI 0.00001, 7-9 days) was 22.9%, the “Average % Control AI” value ([4]; Wt % AI 0.0001, 7-9 days) was 39.2% and the “Average % Control AI” value [5] was 16.3% and 7.6%.

Source: patent publication US20260182575A1, “MOLECULES HAVING PESTICIDAL UTILITY AND INTERMEDIATES AND PROCESSES RELATED THERETO” (CORTEVA AGRISCIENCE LLC, priority 2022, published 2026)
